± gives the expanded uncertainty stated by the source.

The conditions of the data set: 101.33 kPa, Liquid; for speed of sound: Single path-length method; for mass density: Vibrating tube method.

Turning to `CN1CCCC1=O` [N-methylpyrrolidone], the speed of sound (in general, the propagation velocity of pressure waves in the medium) by setting is: (293.15 K) 1565.5 ± 1.1 m/s; (298.15 K) 1546 ± 1.1 m/s; (303.15 K) 1527.2 ± 1.1 m/s; (308.15 K) 1507.4 ± 1.1 m/s. The mass density (commonly mass per unit of volume) is, setting by setting: (293.15 K) 1033.23 ± 0.33 kg/m3; (298.15 K) 1028.23 ± 0.33 kg/m3; (303.15 K) 1023.46 ± 0.32 kg/m3; (308.15 K) 1018.66 ± 0.32 kg/m3.

On to `CCn1cc[n+](C)c1.F[B-](F)(F)F` [1-ethyl-3-methylimidazolium tetrafluoroborate], for which the speed of sound by setting is: (293.15 K) 1631 ± 2 m/s; (298.15 K) 1619.4 ± 2 m/s; (303.15 K) 1607.6 ± 2 m/s; (308.15 K) 1596.3 ± 2 m/s. The mass density stood at 1283.89 ± 1.9 kg/m3 (293.15 K), 1279.91 ± 1.9 kg/m3 (298.15 K), 1276.26 ± 1.9 kg/m3 (303.15 K) and 1272.07 ± 1.9 kg/m3 (308.15 K).

As for `O=C1CCCN1` [2-pyrrolidinone], the speed of sound amounted to 1650.1 ± 1.1 m/s (293.15 K), 1633.9 ± 1.1 m/s (298.15 K), 1617.1 ± 1.1 m/s (303.15 K) and 1601.8 ± 1.1 m/s (308.15 K). Moreover, the mass density is, setting by setting: (293.15 K) 1111.28 ± 0.41 kg/m3; (298.15 K) 1107.15 ± 0.41 kg/m3; (303.15 K) 1103.02 ± 0.41 kg/m3; (308.15 K) 1098.9 ± 0.4 kg/m3.

(Values after the NIST ThermoML archive (doi:10.1016/j.tca.2013.04.011).)
